Results from patent US20210403443A1, “SUBSTITUTED 1,2,4-OXADIAZOLE, ITS APPLICATION AND A PHARMACEUTICAL PREPARATION COMPRISING IT” (SVENOX PHARMACEUTICALS LLC, priority 2018, published 2021).
Converted amounts (≈) assume the structure as drawn. Where two headings read alike, the source gives them in different places.

Assays:
[1] = tested on: Mycobacterium tuberculosis CNCTC My 331/88; assay: microbe, parasite or virus in culture; format: cell-based; details: read-out: Minimum inhibiting concentration
[2] = tested on: M. kansasii CNCTC My 235/80; assay: microbe, parasite or virus in culture; format: cell-based; details: Mycobacterium kansasii, read-out: Minimum inhibiting concentration
M. avium CNCTC My 330/88 = assay: MIC micromethod in Sula's medium, atypical strain M. avium; format: cell-based; details: Mycobacterium avium, read-out: Minimum inhibiting concentration
Experimental: The prepared compounds with general formula I were tested by the Institute of Public Health in Ostrava (Department of Bacteriology and Mycology, Laboratory for Diagnostics of Mycobacteria, Partyzanské náměsti 7, 702 00 Ostrava) under in vitro conditions in liquid Sula's medium and their minimum inhibiting concentrations (MIC) were determined as the biological effect of molecules cannot be predicted. The antimycobacterial activity of the prepared compounds was tested on the collection strain Mycobacterium tuberculosis CNCTC My 331/88, collection atypical strains M. avium CNCTC My 330/88 and M. kansasii CNCTC My 235/80. Their activity was compared with the effect of isoniazide (INH), a commonly used medicament.

[3] = 336 h, M. avium My 330/88, after 14 days of incubation
[4] = 504 h, M. avium My 330/88, after 21 days of incubation

| SMILES | MIC ([1]; 336 h) | MIC ([1]; 504 h) | MIC ([2]; 168 h) | MIC ([2]; 336 h) | MIC ([2]; 504 h) | melting point | MIC (M. avium CNCTC My 330/88; [3]) | MIC (M. avium CNCTC My 330/88; [4]) |
| --- | --- | --- | --- | --- | --- | --- | --- | --- |
| O=[N+]([O-])c1cc(CSc2nc(-c3ccccc3)no2)cc([N+](=O)[O-])c1 [Compound 1, 5-((3,5-Dinitrobenzyl)sulfanyl)-3-phenyl-1,2,4-oxadiazole] | 0.5 µM (≈ 0.179 µg/mL) | 1 µM (≈ 0.358 µg/mL) | 0.5 µM (≈ 0.179 µg/mL) | 1 µM (≈ 0.358 µg/mL) | 1 µM (≈ 0.358 µg/mL) | 135 to 136 °C | 250 µM (≈ 89.6 µg/mL) | 250 µM (≈ 89.6 µg/mL) |
| Cc1ccc(-c2noc(SCc3cc([N+](=O)[O-])cc([N+](=O)[O-])c3)n2)cc1 [Compound 2, 5-((3,5-Dinitrobenzyl)sulfanyl)-3-(p-tolyl)-1,2,4-oxadiazole] | 0.5 µM (≈ 0.186 µg/mL) | 1 µM (≈ 0.372 µg/mL) | 0.5 µM (≈ 0.186 µg/mL) | 1 µM (≈ 0.372 µg/mL) | 2 µM (≈ 0.745 µg/mL) | 150 to 152 °C | 250 µM (≈ 93.1 µg/mL) | 250 µM (≈ 93.1 µg/mL) |
| COc1ccc(-c2noc(SCc3cc([N+](=O)[O-])cc([N+](=O)[O-])c3)n2)cc1 [Compound 3] | 0.5 µM (≈ 0.194 µg/mL) | 0.5 µM (≈ 0.194 µg/mL) | 0.5 µM (≈ 0.194 µg/mL) | 1 µM (≈ 0.388 µg/mL) | 2 µM (≈ 0.777 µg/mL) |  | 250 µM (≈ 97.1 µg/mL) | 250 µM (≈ 97.1 µg/mL) |
| O=[N+]([O-])c1cc(CSc2nc(-c3ccc(Cl)cc3)no2)cc([N+](=O)[O-])c1 [Compound 4] | 0.5 µM (≈ 0.196 µg/mL) | 1 µM (≈ 0.393 µg/mL) | 1 µM (≈ 0.393 µg/mL) | 2 µM (≈ 0.786 µg/mL) | 4 µM (≈ 1.57 µg/mL) |  | 250 µM (≈ 98.2 µg/mL) | 250 µM (≈ 98.2 µg/mL) |
| O=[N+]([O-])c1cc(CSc2nc(-c3cccc(Cl)c3)no2)cc([N+](=O)[O-])c1 [Compound 5] | 0.5 µM (≈ 0.196 µg/mL) | 1 µM (≈ 0.393 µg/mL) | 2 µM (≈ 0.786 µg/mL) | 2 µM (≈ 0.786 µg/mL) | 4 µM (≈ 1.57 µg/mL) | 133 to 135 °C | 250 µM (≈ 98.2 µg/mL) | 250 µM (≈ 98.2 µg/mL) |
| O=[N+]([O-])c1cc(CSc2nc(-c3ccccc3Cl)no2)cc([N+](=O)[O-])c1 [Compound 6] | 0.5 µM (≈ 0.196 µg/mL) | 1 µM (≈ 0.393 µg/mL) | 8 µM (≈ 3.14 µg/mL) | 16 µM (≈ 6.28 µg/mL) | 32 µM (≈ 12.6 µg/mL) | 158 to 160 °C | 125 µM (≈ 49.1 µg/mL) | 125 µM (≈ 49.1 µg/mL) |
| O=[N+]([O-])c1cc(CSc2nc(-c3ccc(Cl)c(Cl)c3)no2)cc([N+](=O)[O-])c1 [Compound 7] | 1 µM (≈ 0.427 µg/mL) | 1 µM (≈ 0.427 µg/mL) | 1 µM (≈ 0.427 µg/mL) | 1 µM (≈ 0.427 µg/mL) | 2 µM (≈ 0.854 µg/mL) | 176 to 177 °C | 250 µM (≈ 107 µg/mL) | 250 µM (≈ 107 µg/mL) |
| O=[N+]([O-])c1cc(CSc2nc(-c3ccc(F)cc3)no2)cc([N+](=O)[O-])c1 [Compound 8] | 0.25 µM (≈ 0.0941 µg/mL) | 0.5 µM (≈ 0.188 µg/mL) | 0.5 µM (≈ 0.188 µg/mL) | 1 µM (≈ 0.376 µg/mL) | 2 µM (≈ 0.753 µg/mL) | 150 to 152 °C | 250 µM (≈ 94.1 µg/mL) | 250 µM (≈ 94.1 µg/mL) |
| O=[N+]([O-])c1cc(CSc2nc(-c3ccc(Br)cc3)no2)cc([N+](=O)[O-])c1 [Compound 9] | 1 µM (≈ 0.437 µg/mL) | 1 µM (≈ 0.437 µg/mL) | 1 µM (≈ 0.437 µg/mL) | 1 µM (≈ 0.437 µg/mL) | 2 µM (≈ 0.874 µg/mL) | 175 to 176 °C | 125 µM (≈ 54.7 µg/mL) | 125 µM (≈ 54.7 µg/mL) |
| O=[N+]([O-])c1cc(CCc2nc(-c3ccccc3)no2)cc([N+](=O)[O-])c1 [Compound 11, 5-(3,5-Dinitrophenethyl)-3-phenyl-1,2,4-oxadiazole] | 4 µM (≈ 1.36 µg/mL) | 4 µM (≈ 1.36 µg/mL) | 2 µM (≈ 0.681 µg/mL) | 4 µM (≈ 1.36 µg/mL) | 8 µM (≈ 2.72 µg/mL) | 120 to 122 °C | 250 µM (≈ 85.1 µg/mL) | 250 µM (≈ 85.1 µg/mL) |
| Cc1ccc(-c2noc(CCc3cc([N+](=O)[O-])cc([N+](=O)[O-])c3)n2)cc1 [Compound 12, 5-(3,5-Dinitrophenethyl)-3-(p-tolyl)-1,2,4-oxadiazole] | 2 µM (≈ 0.709 µg/mL) | 4 µM (≈ 1.42 µg/mL) | 2 µM (≈ 0.709 µg/mL) | 4 µM (≈ 1.42 µg/mL) | 4 µM (≈ 1.42 µg/mL) | 147 to 148 °C | 250 µM (≈ 88.6 µg/mL) | 250 µM (≈ 88.6 µg/mL) |
| COc1ccc(-c2noc(CCc3cc([N+](=O)[O-])cc([N+](=O)[O-])c3)n2)cc1 [Compound 13] | 0.5 µM (≈ 0.185 µg/mL) | 1 µM (≈ 0.37 µg/mL) | 0.5 µM (≈ 0.185 µg/mL) | 1 µM (≈ 0.37 µg/mL) | 2 µM (≈ 0.741 µg/mL) | 128 to 129 °C | 250 µM (≈ 92.6 µg/mL) | 250 µM (≈ 92.6 µg/mL) |
| O=[N+]([O-])c1cc(CCc2nc(-c3ccc(Cl)cc3)no2)cc([N+](=O)[O-])c1 [Compound 14] | > 32 µM | > 32 µM | > 32 µM | > 32 µM | > 32 µM | 182 to 183 °C | 250 µM (≈ 93.7 µg/mL) | 250 µM (≈ 93.7 µg/mL) |
| O=[N+]([O-])c1cc(CCc2nc(-c3ccc(Cl)c(Cl)c3)no2)cc([N+](=O)[O-])c1 [Compound 15] | > 32 µM | > 32 µM | 32 µM (≈ 13.1 µg/mL) | > 32 µM | > 32 µM | 154 to 155 °C | 250 µM (≈ 102 µg/mL) | 250 µM (≈ 102 µg/mL) |
| O=[N+]([O-])c1cc(CCc2nc(-c3ccc(F)cc3)no2)cc([N+](=O)[O-])c1 [Compound 16] | > 32 µM | > 32 µM | > 32 µM | > 32 µM | > 32 µM | 169 to 171 °C | 250 µM (≈ 89.6 µg/mL) | 250 µM (≈ 89.6 µg/mL) |
